Measured values as given in ChEMBL document CHEMBL3525964 (Drug Metab Dispos, 2012).

What was measured:
[1] = tested on: Plasma; experiment: Drug level in human plasma treated with [14C}LY2452473 at 15 mg, po after 8 hrs administered as single dose by HPLC analysis; format: ADME, organism-based; details: in vivo
[2] = tested on: Plasma; experiment: Drug level in human plasma treated with [14C}LY2452473 at 15 mg, po after 24 hrs administered as single dose by HPLC analysis; format: ADME, organism-based; details: in vivo
[3] = tested on: Plasma; experiment: Drug level in human plasma treated with [14C}LY2452473 at 15 mg, po after 2 hrs administered as single dose by HPLC analysis; format: ADME, organism-based; details: in vivo
[4] = tested on: Plasma; experiment: Drug level in human plasma treated with [14C}LY2452473 at 15 mg, po after 48 hrs administered as single dose by HPLC analysis; format: ADME, organism-based; details: in vivo
[5] = tested on: Plasma; experiment: Drug level in human plasma treated with [14C}LY2452473 at 15 mg, po after 4 hrs administered as single dose by HPLC analysis; format: ADME, organism-based; details: in vivo
[6] = tested on: Plasma; experiment: Drug level in human plasma treated with [14C}LY2452473 at 15 mg, po after 1 hr administered as single dose by HPLC analysis; format: ADME, organism-based; details: in vivo
[7] = tested on: Plasma; experiment: Drug metabolism in human plasma assessed as [(1R)-2-hydroxy-1-methyl-ethyl]N-[(2S)-7-cyano-4-(2-pyridylmethyl)-2,3-dihydro-1H-cyclopenta[b]indol-2-yl]carbamate formation at 15 mg, po administered as single dose by LC-MS/MS method; format: ADME, organism-based; details: in vivo
[8] = Drug metabolism in human urine assessed as (2S)-2-amino-4-(2-pyridylmethyl)-2,3-dihydro-1H-cyclopenta[b]indole-7-carbonitrile formation at 15 mg, po administered as single dose by LC-MS/MS method; format: ADME, organism-based; details: in vivo
[9] = tested on: Homo sapiens; experiment: Tlast in human assessed as total radioactivity at 15 mg, po administered as single dose by liquid scintillation counting method; format: ADME, organism-based; details: in vivo
[10] = Drug metabolism in human urine assessed as isopropyl N-[(2S,3S)-7-cyano-3-hydroxy-4-(2-pyridylmethyl)-2,3-dihydro-1H-cyclopenta[b]indol-2-yl]carbamate formation at 15 mg, po administered as single dose by LC-MS/MS method; format: ADME, organism-based; details: in vivo
[11] = tested on: Plasma; experiment: Drug metabolism in human plasma assessed as isopropyl(2S)-7-cyano-3a,8b-dihydroxy-4-(pyridin-2-ylmethyl)-1,2,3,3a,4,8b-hexahydrocyclopenta[b]indol-2-ylcarbamate formation at 15 mg, po administered as single dose by LC-MS/MS method; format: ADME, organism-based; details: in vivo
[12] = Drug metabolism in human urine assessed as LY2452473 formation at 15 mg, po administered as single dose by LC-MS/MS method; format: ADME, organism-based; details: in vivo
[13] = Drug metabolism in human urine assessed as [(1R)-2-hydroxy-1-methyl-ethyl]N-[(2S)-7-cyano-4-(2-pyridylmethyl)-2,3-dihydro-1H-cyclopenta[b]indol-2-yl]carbamate formation at 15 mg, po administered as single dose by LC-MS/MS method; format: ADME, organism-based; details: in vivo
[14] = tested on: Homo sapiens; experiment: Elimination half life in human assessed as total radioactivity at 15 mg, po administered as single dose by liquid scintillation counting method; format: ADME, organism-based; details: in vivo
[15] = Drug metabolism in human urine assessed as N-[(2S)-7-cyano-4-(2-pyridylmethyl)-2,3-dihydro-1H-cyclopenta[b]indol-2-yl]acetamide formation at 15 mg, po administered as single dose by LC-MS/MS method; format: ADME, organism-based; details: in vivo
[16] = tested on: Plasma; experiment: Drug level in human plasma at 15 mg, po after 48 hrs administered as single dose by HPLC analysis; format: ADME, organism-based; details: in vivo, pooled result: one value given for 5 cell lines, strains, targets or settings
[17] = tested on: Homo sapiens; experiment: AUC (0 to infinity) in human assessed as total radioactivity at 15 mg, po administered as single dose by liquid scintillation counting method; format: ADME, organism-based, Plasma; parameters: dose 15 mg, route oral, time infinity; details: in vivo
[18] = tested on: Homo sapiens; experiment: Tmax in human assessed as total radioactivity at 15 mg, po administered as single dose by liquid scintillation counting method; format: ADME, organism-based; details: in vivo
[19] = tested on: Homo sapiens; experiment: AUC (0 to time) in human assessed as total radioactivity at 15 mg, po administered as single dose by liquid scintillation counting method; format: ADME, organism-based, Plasma; details: in vivo
[20] = Drug recovery in human feces at 15 mg, po administered as single dose after 0 to 312 hrs by liquid scintillation counting method; format: ADME, organism-based; details: in vivo
[21] = Drug metabolism in human feces assessed as N-[(2S)-7-cyano-4-(2-pyridylmethyl)-2,3-dihydro-1H-cyclopenta[b]indol-2-yl]acetamide formation at 15 mg, po administered as single dose by LC-MS/MS method; format: ADME, organism-based; details: in vivo
[22] = Drug metabolism in human feces assessed as isopropyl(2S)-7-cyano-3a,8b-dihydroxy-4-(pyridin-2-ylmethyl)-1,2,3,3a,4,8b-hexahydrocyclopenta[b]indol-2-ylcarbamate formation at 15 mg, po administered as single dose by LC-MS/MS method; format: ADME, organism-based; details: in vivo
[23] = Drug metabolism in human feces assessed as isopropyl N-[(2S,3S)-7-cyano-3-hydroxy-4-(2-pyridylmethyl)-2,3-dihydro-1H-cyclopenta[b]indol-2-yl]carbamate formation at 15 mg, po administered as single dose by LC-MS/MS method; format: ADME, organism-based; details: in vivo
[24] = tested on: Plasma; experiment: Drug metabolism in human plasma assessed as LY2452473 formation at 15 mg, po administered as single dose by LC-MS/MS method; format: ADME, organism-based; details: in vivo
[25] = tested on: Plasma; experiment: Drug metabolism in human plasma assessed as isopropyl N-[(2S,3S)-7-cyano-3-hydroxy-4-(2-pyridylmethyl)-2,3-dihydro-1H-cyclopenta[b]indol-2-yl]carbamate formation at 15 mg, po administered as single dose by LC-MS/MS method; format: ADME, organism-based; details: in vivo
[26] = Drug metabolism in human urine assessed as isopropyl(2S)-7-cyano-3a,8b-dihydroxy-4-(pyridin-2-ylmethyl)-1,2,3,3a,4,8b-hexahydrocyclopenta[b]indol-2-ylcarbamate formation at 15 mg, po administered as single dose by LC-MS/MS method; format: ADME, organism-based; details: in vivo
[27] = tested on: Plasma; experiment: Drug metabolism in human plasma assessed as (2S)-2-amino-4-(2-pyridylmethyl)-2,3-dihydro-1H-cyclopenta[b]indole-7-carbonitrile formation at 15 mg, po administered as single dose by LC-MS/MS method; format: ADME, organism-based; details: in vivo
[28] = tested on: Plasma; experiment: Drug level in human plasma at 15 mg, po after 24 hrs administered as single dose by HPLC analysis; format: ADME, organism-based; details: in vivo
[29] = Drug recovery in human urine at 15 mg, po administered as single dose after 0 to 312 hrs by liquid scintillation counting method; format: ADME, organism-based; details: in vivo
[30] = Drug metabolism in human feces assessed as (2S)-2-amino-4-(2-pyridylmethyl)-2,3-dihydro-1H-cyclopenta[b]indole-7-carbonitrile formation at 15 mg, po administered as single dose by LC-MS/MS method; format: ADME, organism-based; details: in vivo
[31] = Drug metabolism in human feces assessed as LY2452473 formation at 15 mg, po administered as single dose by LC-MS/MS method; format: ADME, organism-based; details: in vivo
[32] = Drug metabolism in human feces assessed as [(1R)-2-hydroxy-1-methyl-ethyl]N-[(2S)-7-cyano-4-(2-pyridylmethyl)-2,3-dihydro-1H-cyclopenta[b]indol-2-yl]carbamate formation at 15 mg, po administered as single dose by LC-MS/MS method; format: ADME, organism-based; details: in vivo
[33] = tested on: Homo sapiens; experiment: Drug recovery in human at 15 mg, po administered as single dose after 0 to 312 hrs by liquid scintillation counting method; format: ADME, organism-based; details: in vivo
[34] = tested on: Plasma; experiment: Drug metabolism in human plasma assessed as N-[(2S)-7-cyano-4-(2-pyridylmethyl)-2,3-dihydro-1H-cyclopenta[b]indol-2-yl]acetamide formation at 15 mg, po administered as single dose by LC-MS/MS method; format: ADME, organism-based; details: in vivo
[35] = Drug level in feces of human treated with [14C}LY2452473 at 15 mg, po administered as single dose by LC-MS/MS method; format: ADME, organism-based; details: in vivo
[36] = tested on: Plasma; experiment: Drug level in plasma of human treated with [14C}LY2452473 at 15 mg, po administered as single dose by LC-MS/MS method; format: ADME, organism-based; details: in vivo
[37] = Drug level in urine of human treated with [14C}LY2452473 at 15 mg, po administered as single dose by LC-MS/MS method; format: ADME, organism-based; details: in vivo
[38] = tested on: Plasma; experiment: Drug level in human plasma treated with [14C}LY2452473 at 15 mg, po after 4 hrs administered as single dose by HPLC analysis relative to total radioactivity; format: ADME, organism-based; details: in vivo
[39] = Drug excretion in urine of human treated with [14C}LY2452473 at 15 mg, po administered as single dose by HPLC analysis; format: ADME, organism-based; details: read-out: Drug excretion
[40] = Total drug excretion in human treated with [14C}LY2452473 at 15 mg, po administered as single dose by HPLC analysis; format: ADME, organism-based; details: in vivo, read-out: Drug excretion

`C[C@@H](CO)OC(=O)N[C@H]1Cc2c(n(Cc3ccccn3)c3ccc(C#N)cc23)C1` gave a Drug uptake [1] of 0%, a Drug uptake [2] of 0% and a Drug uptake [3] of 0%. The Drug uptake [4] was 0%, the Drug uptake [5] was 0.97% and the Drug uptake [6] was 0%.
For `CC(C)OC(=O)N[C@H]1Cc2c(n(Cc3ccccn3)c3ccc([14C]#N)cc23)C1`, the Drug metabolism [7] was “metabolite_detected”, the Drug metabolism [8] was “metabolite_detected” and the Tlast [9] was 204 h. For the same compound, the Drug metabolism [10] was “metabolite_detected”, the Drug metabolism [11] was “metabolite_detected” and the Drug metabolism [12] was “metabolite_detected”. For the same compound, the Drug metabolism [13] was “metabolite_detected”, the “beta t1/2” value [14] was 51 h and the Drug metabolism [15] was “metabolite_detected”. It also gave a Drug uptake [16] of 96.4%, an AUC [17] of 7750 ng·h/mL and a Tmax [18] of 3 h. The AUCt [19] was 7210 ng·h/mL, the Drug recovery [20] was 46.6% and the Drug metabolism [21] was “metabolite_detected”. For the same compound, the Drug metabolism [22] was “metabolite_detected”, the Drug metabolism [23] was “metabolite_detected” and the Drug metabolism [24] was “metabolite_detected”. The Drug metabolism [25] was “metabolite_detected”, the Drug metabolism [26] was “metabolite_detected” and the Drug metabolism [27] was “metabolite_detected”. The Drug uptake [28] was 94.41%, the Drug recovery [29] was 47.9% and the Drug metabolism [30] was “metabolite_detected”. For the same compound, the Drug metabolism [31] was “metabolite_detected”, the Drug metabolism [32] was “metabolite_detected” and the Drug recovery [33] was 94.5%. The Drug metabolism [34] was “metabolite_detected”.
In the case of `CC(=O)N[C@H]1Cc2c(n(Cc3ccccn3)c3ccc(C#N)cc23)C1`, the Drug uptake [1] is reported as 10.48%, the Drug uptake [2] is reported as 28.48% and the Drug uptake [3] is reported as 0%. The Drug uptake [4] was 38.68%, the Drug metabolism [35] was “metabolite_detected” and the Drug uptake [5] was 1.74%. For the same compound, the Drug metabolism [36] was “metabolite_detected”, the Drug metabolism [37] was “metabolite_detected” and the Drug uptake [38] was 20.6%. It also gave a Drug uptake [6] of 0%.
In the case of `N#Cc1ccc2c(c1)c1c(n2Cc2ccccn2)C[C@@H](N)C1`, the dose excreted [39] is reported as 3.39%, the Drug metabolism [35] is reported as “metabolite_detected” and the dose excreted [40] is reported as 3.39%. For the same compound, the Drug metabolism [36] was “metabolite_detected” and the Drug metabolism [37] was “metabolite_detected”.
In the case of `CC(C)OC(=O)N[C@H]1CC2(O)c3cc(C#N)ccc3N(Cc3ccccn3)C2(O)C1` (some centres not stated), the Drug metabolism [35] is reported as “metabolite_detected”, the Drug metabolism [36] is reported as “metabolite_detected” and the Drug metabolism [37] is reported as “metabolite_detected”.
`C[C@H](CO)OC(=O)N[C@H]1Cc2c(n(Cc3ccccn3)c3ccc(C#N)cc23)C1` gave a Drug uptake [1] of 6.94%, a Drug uptake [2] of 0% and a Drug uptake [3] of 0.89%. For the same compound, the Drug uptake [4] was 0%, the Drug metabolism [35] was “metabolite_detected” and the Drug uptake [5] was 2.2%. For the same compound, the Drug metabolism [36] was “metabolite_detected”, the Drug metabolism [37] was “metabolite_detected” and the Drug uptake [38] was 2.3%. It also gave a Drug uptake [6] of 0%.
`CC(C)OC(=O)N[C@H]1Cc2c(n(Cc3ccccn3)c3ccc(C#N)cc23)[C@H]1O` showed a Drug uptake [1] of 36.62%, a Drug uptake [2] of 37.11% and a Drug uptake [3] of 22.58%. For the same compound, the Drug uptake [4] was 30.05%, the Drug metabolism [35] was “metabolite_detected” and the Drug uptake [5] was 24.24%. The Drug metabolism [36] was “metabolite_detected”, the Drug metabolism [37] was “metabolite_detected” and the Drug uptake [38] was 34.7%. It also gave a Drug uptake [6] of 21.9%.
